Species on record: Rattus norvegicus
Test: DrugMatrix - Regimen: Daily Repeat
Assay type: toxicity, organism-based, Sprague-Dawley
Parameters: regimen Daily Repeat, gender Male, age 6-8 weeks
Conditions: in vivo, po, route oral GAVAGE, vehicle .5 % CMC; for BASOPHIL / EOSINOPHIL / ERYTHROCYTE COUNT / HEMATOCRIT / HEMOGLOBIN / LEUKOCYTE COUNT / LYMPHOCYTE / MEAN CORPUSCULAR HEMOGLOBIN / MEAN CORPUSCULAR HEMOGLOBIN CONCENTRATION / MEAN CORPUSCULAR VOLUME / MONOCYTE / NEUTROPHIL / PLATELET COUNT: tissue Blood; for ALANINE AMINOTRANSFERASE / ALBUMIN / ALKALINE PHOSPHATASE / ASPARTATE AMINOTRANSFERASE / BLOOD UREA NITROGEN / CARBON DIOXIDE / CHLORIDE / CHOLESTEROL / CREATINE PHOSPHOKINASE / CREATININE / GLUCOSE / LACTATE DEHYDROGENASE / LIPASE / PHOSPHORUS / POTASSIUM / SODIUM / TOTAL BILIRUBIN / TOTAL PROTEIN / URIC ACID: tissue Plasma
[1] = 0 mg/kg, 96 h, dose level Control, time 4 day
[2] = 0 mg/kg, […], dose level Control, time 6 day
[3] = 0 mg/kg, […], dose level Control, time 14 day
[4] = 750 mg/kg, 96 h, dose level High, time 4 day
[5] = 750 mg/kg, […], dose level High, time 6 day
[6] = 750 mg/kg, […], dose level High, time 14 day

## Cc1ccc([N+](=O)[O-])cc1 [4-NITROTOLUENE]
[1]
  BASOPHIL: 0.5%
  EOSINOPHIL: 1.85%
  ERYTHROCYTE COUNT: 6.99 x10E6/uL
  HEMATOCRIT: 43.82%
  HEMOGLOBIN: 13.87 G/DL
  LEUKOCYTE COUNT: 12.01 x10E3/uL
  LYMPHOCYTE: 82.07%
  MEAN CORPUSCULAR HEMOGLOBIN: 19.8 pg
  MEAN CORPUSCULAR HEMOGLOBIN CONCENTRATION: 31.63 G/DL
  MEAN CORPUSCULAR VOLUME: 62.7 fL
  MONOCYTE: 2.6%
  NEUTROPHIL: 12.38%
  PLATELET COUNT: 1155 x10E3/uL
  ALANINE AMINOTRANSFERASE: 31.67 u/L
  ALBUMIN: 4.12 G/DL
  ALKALINE PHOSPHATASE: 396 u/L
  ASPARTATE AMINOTRANSFERASE: 75.67 u/L
  BLOOD UREA NITROGEN: 17.5 mg/dL
  CARBON DIOXIDE: 28.83 mmol/L
  CHLORIDE: 103.83 MEQ/L
  CHOLESTEROL: 84.83 mg/dL
  CREATINE PHOSPHOKINASE: 597.17 u/L
  CREATININE: 0.3 mg/dL
  GLUCOSE: 161.5 mg/dL
  LACTATE DEHYDROGENASE: 138.67 u/L
  LIPASE: 11.5 u/L
  PHOSPHORUS: 11.58 mg/dL
  POTASSIUM: 6.87 MEQ/L
  SODIUM: 146.83 MEQ/L
  TOTAL BILIRUBIN: 0.38 mg/dL
  TOTAL PROTEIN: 6.33 G/DL
  URIC ACID: 1.37 mg/dL
[2]
  BASOPHIL: 0.37%
  EOSINOPHIL: 0.38%
  ERYTHROCYTE COUNT: 6.89 x10E6/uL
  HEMATOCRIT: 47.38%
  HEMOGLOBIN: 14.8 G/DL
  LEUKOCYTE COUNT: 13.59 x10E3/uL
  LYMPHOCYTE: 80.27%
  MEAN CORPUSCULAR HEMOGLOBIN: 21.52 pg
  MEAN CORPUSCULAR HEMOGLOBIN CONCENTRATION: 31.22 G/DL
  MEAN CORPUSCULAR VOLUME: 68.83 fL
  MONOCYTE: 2.78%
  NEUTROPHIL: 15.65%
  PLATELET COUNT: 1330.17 x10E3/uL
  ALANINE AMINOTRANSFERASE: 36 u/L
  ALBUMIN: 4.03 G/DL
  ALKALINE PHOSPHATASE: 354.17 u/L
  ASPARTATE AMINOTRANSFERASE: 76.5 u/L
  BLOOD UREA NITROGEN: 19.33 mg/dL
  CARBON DIOXIDE: 27.83 mmol/L
  CHLORIDE: 105.5 MEQ/L
  CHOLESTEROL: 68.83 mg/dL
  CREATINE PHOSPHOKINASE: 383.83 u/L
  CREATININE: 0.35 mg/dL
  GLUCOSE: 165.83 mg/dL
  LACTATE DEHYDROGENASE: 155.17 u/L
  LIPASE: 9.83 u/L
  PHOSPHORUS: 12.4 mg/dL
  POTASSIUM: 6.9 MEQ/L
  SODIUM: 147.33 MEQ/L
  TOTAL BILIRUBIN: 0.52 mg/dL
  TOTAL PROTEIN: 6.42 G/DL
  URIC ACID: 1.6 mg/dL
[3]
  BASOPHIL: 0.38%
  EOSINOPHIL: 0.6%
  ERYTHROCYTE COUNT: 7.78 x10E6/uL
  HEMATOCRIT: 48.3%
  HEMOGLOBIN: 15.42 G/DL
  LEUKOCYTE COUNT: 13.55 x10E3/uL
  LYMPHOCYTE: 81.18%
  MEAN CORPUSCULAR HEMOGLOBIN: 19.8 pg
  MEAN CORPUSCULAR HEMOGLOBIN CONCENTRATION: 31.92 G/DL
  MEAN CORPUSCULAR VOLUME: 62.08 fL
  MONOCYTE: 1.72%
  NEUTROPHIL: 15.17%
  PLATELET COUNT: 1083.83 x10E3/uL
  ALANINE AMINOTRANSFERASE: 36.83 u/L
  ALBUMIN: 4.13 G/DL
  ALKALINE PHOSPHATASE: 328.17 u/L
  ASPARTATE AMINOTRANSFERASE: 74.83 u/L
  BLOOD UREA NITROGEN: 18.67 mg/dL
  CARBON DIOXIDE: 29.33 mmol/L
  CHLORIDE: 105.17 MEQ/L
  CHOLESTEROL: 72 mg/dL
  CREATINE PHOSPHOKINASE: 217.67 u/L
  CREATININE: 0.45 mg/dL
  GLUCOSE: 151.17 mg/dL
  LACTATE DEHYDROGENASE: 133.17 u/L
  LIPASE: 14.5 u/L
  PHOSPHORUS: 11.55 mg/dL
  POTASSIUM: 6.77 MEQ/L
  SODIUM: 149.33 MEQ/L
  TOTAL BILIRUBIN: 0.37 mg/dL
  TOTAL PROTEIN: 6.62 G/DL
  URIC ACID: 1.57 mg/dL
[4]
  BASOPHIL: 0.3%
  EOSINOPHIL: 0.63%
  ERYTHROCYTE COUNT: 6.55 x10E6/uL
  HEMATOCRIT: 41.57%
  HEMOGLOBIN: 12.83 G/DL
  LEUKOCYTE COUNT: 12.7 x10E3/uL
  LYMPHOCYTE: 82.73%
  MEAN CORPUSCULAR HEMOGLOBIN: 19.6 pg
  MEAN CORPUSCULAR HEMOGLOBIN CONCENTRATION: 30.9 G/DL
  MEAN CORPUSCULAR VOLUME: 63.5 fL
  MONOCYTE: 1.93%
  NEUTROPHIL: 13.9%
  PLATELET COUNT: 1261.33 x10E3/uL
  ALANINE AMINOTRANSFERASE: 28.33 u/L
  ALBUMIN: 3.93 G/DL
  ALKALINE PHOSPHATASE: 300 u/L
  ASPARTATE AMINOTRANSFERASE: 82.67 u/L
  BLOOD UREA NITROGEN: 18.67 mg/dL
  CARBON DIOXIDE: 25.33 mmol/L
  CHLORIDE: 106 MEQ/L
  CHOLESTEROL: 90 mg/dL
  CREATINE PHOSPHOKINASE: 852 u/L
  CREATININE: 0.4 mg/dL
  GLUCOSE: 175.33 mg/dL
  LACTATE DEHYDROGENASE: 320.67 u/L
  LIPASE: 11 u/L
  PHOSPHORUS: 12.03 mg/dL
  POTASSIUM: 6.37 MEQ/L
  SODIUM: 147 MEQ/L
  TOTAL BILIRUBIN: 0.4 mg/dL
  TOTAL PROTEIN: 6.07 G/DL
  URIC ACID: 1.5 mg/dL
[5]
  BASOPHIL: 0.2%
  EOSINOPHIL: 0.4%
  ERYTHROCYTE COUNT: 6.89 x10E6/uL
  HEMATOCRIT: 50%
  HEMOGLOBIN: 14.85 G/DL
  LEUKOCYTE COUNT: 11.06 x10E3/uL
  LYMPHOCYTE: 89%
  MEAN CORPUSCULAR HEMOGLOBIN: 21.5 pg
  MEAN CORPUSCULAR HEMOGLOBIN CONCENTRATION: 29.65 G/DL
  MEAN CORPUSCULAR VOLUME: 72.6 fL
  MONOCYTE: 0.95%
  NEUTROPHIL: 9%
  PLATELET COUNT: 1574 x10E3/uL
  ALANINE AMINOTRANSFERASE: 39 u/L
  ALBUMIN: 4.2 G/DL
  ALKALINE PHOSPHATASE: 351.67 u/L
  ASPARTATE AMINOTRANSFERASE: 89 u/L
  BLOOD UREA NITROGEN: 16.67 mg/dL
  CARBON DIOXIDE: 29.33 mmol/L
  CHLORIDE: 106 MEQ/L
  CHOLESTEROL: 68 mg/dL
  CREATINE PHOSPHOKINASE: 701.67 u/L
  CREATININE: 0.6 mg/dL
  GLUCOSE: 151.33 mg/dL
  LACTATE DEHYDROGENASE: 127 u/L
  LIPASE: 10.67 u/L
  PHOSPHORUS: 11.57 mg/dL
  POTASSIUM: 6.27 MEQ/L
  SODIUM: 149.33 MEQ/L
  TOTAL BILIRUBIN: 0.33 mg/dL
  TOTAL PROTEIN: 6.5 G/DL
  URIC ACID: 1.4 mg/dL
[6]
  BASOPHIL: 0.68%
  EOSINOPHIL: 0.52%
  ERYTHROCYTE COUNT: 7.67 x10E6/uL
  HEMATOCRIT: 48.12%
  HEMOGLOBIN: 15.24 G/DL
  LEUKOCYTE COUNT: 10.23 x10E3/uL
  LYMPHOCYTE: 81.12%
  MEAN CORPUSCULAR HEMOGLOBIN: 19.9 pg
  MEAN CORPUSCULAR HEMOGLOBIN CONCENTRATION: 31.7 G/DL
  MEAN CORPUSCULAR VOLUME: 62.76 fL
  MONOCYTE: 2.12%
  NEUTROPHIL: 14.52%
  PLATELET COUNT: 1133.4 x10E3/uL
  ALANINE AMINOTRANSFERASE: 40.6 u/L
  ALBUMIN: 4.04 G/DL
  ALKALINE PHOSPHATASE: 340.4 u/L
  ASPARTATE AMINOTRANSFERASE: 91.2 u/L
  BLOOD UREA NITROGEN: 18.2 mg/dL
  CARBON DIOXIDE: 28.6 mmol/L
  CHLORIDE: 105.6 MEQ/L
  CHOLESTEROL: 66.6 mg/dL
  CREATINE PHOSPHOKINASE: 631.6 u/L
  CREATININE: 0.56 mg/dL
  GLUCOSE: 157.4 mg/dL
  LACTATE DEHYDROGENASE: 226.6 u/L
  LIPASE: 13.6 u/L
  PHOSPHORUS: 12.16 mg/dL
  POTASSIUM: 6.96 MEQ/L
  SODIUM: 149.8 MEQ/L
  TOTAL BILIRUBIN: 0.38 mg/dL
  TOTAL PROTEIN: 6.12 G/DL
  URIC ACID: 1.8 mg/dL
